Assay results from patent publication US20250353828A1, “SUBSTITUTED BIARYL ENDOCHIN-LIKE QUINOLONES WITH ENHANCED ANTIPARASITIC ACTIVITY” (Oregon Health & Science University, priority 2022, published 2025).
Where two headings read alike, the source gives them in different places.

Experiments:
[1] = tested on: P. falciparum Tm90-C2B (atovaquone-resistant clinical isolate); experiment: In vitro antiplasmodial activity, SYBR Green I assay, Tm90-C2B; type: cell-based; conditions: Plasmodium falciparum, read-out: P. falciparum IC50 values, nM Tm90-C2B
Experimental: (§1) Rationale for Synthesis of a 3-Biaryl Version of ELQ-300. […] All of this information is stored in a database with information relating to chemical structure, physical chemical properties, cross resistance patterns, mammalian cell cytotoxicity, enzyme inhibitor profiles, and synthesis details. […] We employed the SyBr Green assay and the plates were incubated for 72 hours before harvesting^18, 19. […] Stock solutions were freshly prepared in DMSO.
(§2) Plasmodium falciparum Culture. Laboratory strains of P. falciparum were cultured in human erythrocytes by standard methods. The parasites were grown in culture medium with fresh human erythrocytes maintained at 2% hematocrit at 37° C. in low-oxygen conditions (5% O2, 5% CO2, […] balance N2). […] Cultures were maintained at less than 10% parasitemia by transfer of infected cells to fresh erythrocytes and culture medium every 3 or 4 days.
(§3) In vitro drug susceptibility assays. SYBR green I assay. In vitro antiplasmodial activity was assessed using a published SYBR Green I fluorescence-based method. The drugs were added to 96-well plates using 2-fold serial dilutions in complete medium. […] Asynchronous P. falciparum parasites were diluted with uninfected erythrocytes and added to the wells to give a final culture volume of 100 μl at 2% hematocrit and 0.2% parasitemia. […] The parasites were then lysed by adding 100 μl of SYBR green I lysis buffer containing 0.2 μl/ml SYBR green I dye (10,000×) in 20 mM Tris (pH 7.5), 5 mM EDTA, 0.008% (wt/vol) saponin, and 0.08% (vol/vol) Triton X-100. The plates were incubated at room temperature for an hour in the dark. […] If the IC50 value fell outside of the initial tested range then the range was adjusted up or down and the assay was repeated.

[2] = tested on: P. falciparum D6 strain (drug sensitive); experiment: In vitro antiplasmodial activity, SYBR Green I assay, D6 strain; type: cell-based, Plasmodium falciparum; conditions: Plasmodium falciparum, read-out: P. falciparum IC50 values, nM D6
Experimental: as §1, §2, §3

[3] = tested on: P. falciparum D1 clone (ELQ-300 resistant); experiment: microbe, parasite or virus in culture; type: cell-based; conditions: Plasmodium falciparum, 72 h, read-out: P. falciparum IC50 values, nM D1
[4] = tested on: P. falciparum Dd2 strain (multidrug resistant); experiment: microbe, parasite or virus in culture; type: cell-based, Plasmodium falciparum; conditions: Plasmodium falciparum, DD2, 72 h, read-out: P. falciparum IC50 values, nM Dd2
Experimental: as §1, §2, §3

[5] = Tm90-C2B strain, 72 h incubation, averages of quadruplicate with (95% confidence intervals)
[6] = D6 strain, 72 h incubation, averages of quadruplicate with (95% confidence intervals)

| SMILES | IC50 [1, 5] | IC50 [2, 6] | IC50 [3] | IC50 [4] | IC50 ([1]; TM90, 72 h) | IC50 ([2]; D6, 72 h) |
| --- | --- | --- | --- | --- | --- | --- |
| COc1cc2[nH]c(C)c(-c3ccc(-c4ccc(OC(F)F)cc4)cc3)c(=O)c2cc1Cl [ELQ-600, 6-chloro-3-(4′-(difluoromethoxy)-[1,1′-biphenyl]-4-yl)-7-methoxy-2-methylquinolin-4(1H)-one] | 5.9 nM | 3.9 nM |  |  |  |  |
| COc1cc2[nH]c(C)c(-c3ccc(-c4cccc(OC(F)(F)F)c4)cc3)c(=O)c2cc1Cl [ELQ-604, 6-chloro-7-methoxy-2-methyl-3-(3′-(trifluoromethoxy)-[1,1′-biphenyl]-4-yl)quinolin-4(1H)-one] | 0.5 nM | 0.6 nM |  |  |  |  |
| COc1cc2[nH]c(C)c(-c3ccc(-c4ccc(C(F)F)cc4)cc3)c(=O)c2cc1Cl [ELQ-659, 6-chloro-3-(4′-(difluoromethyl)-[1,1′-biphenyl]-4-yl)-7-methoxy-2-methylquinolin-4(1H)-one] | 0.57 nM | 1.8 nM |  |  |  |  |
| COc1ccc2c(=O)c(-c3ccc(-c4cccc(C(F)(F)F)c4)cc3)c(C)[nH]c2c1 [ELQ-730, 7-Methoxy-2-methyl-3-(3′-(trifluoromethyl)-[1,1′-biphenyl]-4-yl)quinolin-4(1H)-one] | 4.05 nM | 5.02 nM | 3.82 nM | 5.33 nM |  |  |
| COc1ccc2c(=O)c(-c3ccc(-c4cc(C(F)(F)F)cc(C(F)(F)F)c4)cc3)c(C)[nH]c2c1 [ELQ-731, 3-(3′,5′-bis(trifluoromethyl)-[1,1′-biphenyl]-4-yl)-7-methoxy-2-methylquinolin-4(1H)-one] | 2.05 nM | 3.93 nM | 5.56 nM | 4.73 nM |  |  |
| COc1ccc2c(=O)c(-c3ccc(-c4cccc(OC(F)(F)F)c4)cc3)c(C)[nH]c2c1 [ELQ-732, 7-methoxy-2-methyl-3-(3′-(trifluoromethoxy)-[1,1′-biphenyl]-4-yl)quinolin-4(1H)-one] | 14.4 nM | 15.9 nM | 10.6 nM | 16.3 nM |  |  |
| COc1ccc2c(=O)c(-c3ccc(-c4cc(F)c(OC(F)(F)F)c(F)c4)cc3)c(C)[nH]c2c1 [ELQ-733, 3-(3′,5′-difluoro-4′-(trifluoromethoxy)-[1,1′-biphenyl]-4-yl)-7-methoxy-2-methylquinolin-4(1H)-one] | 2.94 nM | 7.45 nM | 6.18 nM | 7.9 nM |  |  |
| COc1ccc2c(=O)c(-c3ccc(-c4cc(F)c(OC)c(F)c4)cc3)c(C)[nH]c2c1 [ELQ-734, 3-(3′,5′-difluoro-4′-methoxy-[1,1′-biphenyl]-4-yl)-7-methoxy-2-methylquinolin-4(1H)-one] | 6.4 nM | 10.9 nM | 11.6 nM | 16.3 nM |  |  |
| COc1ccc2c(=O)c(-c3ccc(-c4ccc(F)cc4OC)cc3)c(C)[nH]c2c1 [ELQ-756, 3-(4′-Fluoro-2′-methoxy-[1,1′-biphenyl]-4-yl)-7-methoxy-2-methylquinolin-4(1H)-one] | 3.22 nM | 3.27 nM | 2.06 nM | 4.46 nM |  |  |
| COc1ccc2c(=O)c(-c3ccc(-c4ccc(C(F)(F)F)cc4OC)cc3)c(C)[nH]c2c1 [ELQ-757] |  |  | 1.91 nM | 4.85 nM | 3 nM | 3.08 nM |

Now from value to compound, other results behind:

| IC50 [1, 5] | IC50 [2, 6] | SMILES | IC50 [3] | IC50 [4] | IC50 ([1]; TM90, 72 h) | IC50 ([2]; D6, 72 h) |
| --- | --- | --- | --- | --- | --- | --- |
| 24.5 nM |  | Cc1[nH]c2cc(F)cc(F)c2c(=O)c1-c1ccc(-c2ccc(OC(F)(F)F)cc2)cc1 [ELQ-601, 5,7-difluoro-2-methyl-3-(4′-(trifluoromethoxy)-[1,1′-biphenyl]-4-yl)quinolin-4(1H)-one] |  |  |  |  |
| 10.9 nM | 4.8 nM | COc1cc2[nH]c(C)c(-c3ccc(-c4ccc(C#N)cc4)cc3)c(=O)c2cc1Cl [ELQ-602, 4′-(6-chloro-7-methoxy-2-methyl-4-oxo-1,4-dihydroquinolin-3-yl)-[1,1′-biphenyl]-4-carbonitrile] |  |  |  |  |
| 1.5 nM | 1 nM | COc1cc2[nH]c(C)c(-c3ccc(-c4ccc(C)cc4)cc3)c(=O)c2cc1Cl [ELQ-603, 6-chloro-7-methoxy-2-methyl-3-(4′-methyl-[1,1′-biphenyl]-4-yl)quinolin-4(1H)-one] |  |  |  |  |
| 3 nM | 3.4 nM | COc1cc2[nH]c(C)c(-c3ccc(-c4ccc(Cl)cc4)cc3)c(=O)c2cc1Cl [ELQ-637, 6-chloro-3-(4′-chloro-[1,1′-biphenyl]-4-yl)-7-methoxy-2-methylquinolin-4(1H)-one] |  |  |  |  |
| 6 nM | 5 nM | COc1ccc(-c2ccc(-c3c(C)[nH]c4cc(OC)c(Cl)cc4c3=O)cc2)cc1 [ELQ-645, 6-chloro-7-methoxy-3-(4′-methoxy-[1,1′-biphenyl]-4-yl)-2-methylquinolin-4(1H)-one] |  |  |  |  |
| 1 nM | 1.1 nM | COc1cc2[nH]c(C)c(-c3ccc(-c4cccc(C(F)(F)F)c4)cc3)c(=O)c2cc1Cl [ELQ-646, 6-chloro-7-methoxy-2-methyl-3-(3′-(trifluoromethyl)-[1,1′-biphenyl]-4-yl)quinolin-4(1H)-one] |  |  |  |  |
| 3.5 nM | 3.5 nM | COc1cc2[nH]c(C)c(-c3ccc(-c4ccc(C(F)(F)F)cc4)cc3)c(=O)c2cc1Cl [ELQ-647, 6-chloro-7-methoxy-2-methyl-3-(4′-(trifluoromethyl)-[1,1′-biphenyl]-4-yl)quinolin-4(1H)-one] |  |  |  |  |
| 6 nM | 7.9 nM | Cc1[nH]c2ccccc2c(=O)c1-c1ccc(-c2ccc(OC(F)(F)F)cc2)cc1 [ELQ-649, 2-methyl-3-(4′-(trifluoromethoxy)-[1,1′-biphenyl]-4-yl)quinolin-4(1H)-one] |  |  |  |  |
| 0.4 nM | 0.8 nM | COc1cc2[nH]c(C)c(-c3ccc(-c4ccc(OC(F)(F)F)cc4)cc3)c(=O)c2cc1F [ELQ-650, 6-fluoro-7-methoxy-2-methyl-3-(4′-(trifluoromethoxy)-[1,1′-biphenyl]-4-yl)quinolin-4(1H)-one] |  |  |  |  |
| 0.49 nM | 1.1 nM | COc1cc2[nH]c(C)c(-c3ccc(-c4ccc(C(C)(C)C)cc4)cc3)c(=O)c2cc1Cl [ELQ-651, 3-(4′-(tert-butyl)-[1,1′-biphenyl]-4-yl)-6-chloro-7-methoxy-2-methylquinolin-4(1H)-one] |  |  |  |  |
| 0.88 nM | 1.5 nM | COc1cc2[nH]c(C)c(-c3ccc(-c4ccc(Oc5ccc(OC(F)(F)F)cc5)cc4)cc3)c(=O)c2cc1Cl [ELQ-653] |  |  |  |  |
| 7.9 nM | 15.6 nM | Cc1[nH]c2c(c(=O)c1-c1ccc(-c3ccc(OC(F)(F)F)cc3)cc1)CCCC2 [ELQ-660] |  |  |  |  |
